For twelve molecules, IC50, AC50 and EC50 results are on record in ChEMBL document CHEMBL1201862, “PubChem BioAssay data set” (2004).

The source made the active and inactive calls.

Assay [1] has as its target Disintegrin and metalloproteinase domain-containing protein 17 (Homo sapiens, UniProt P78536). Put plainly: exosite inhibitors of ADAM17, dose response, biochemical (AID 743260).
The nature of assay [2]: ADAM10 protease inhibitors, dose response, selectivity assay for ADAM17 exosite inhibitor project, biochemical, FRET peptide substrate, recombinant human ADAM10 (AID 743259).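 Further: ADAM10 enzyme cleaving a FRET peptide substrate.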
Assay [3] is described as follows: Dose-response inhibition of insulin secretion in a rat insulinoma line at 5 mM glucose (AID 1117331). The class given is functional, cell-based. Particulars: INS-1E.
Assay [4] addresses G-protein coupled receptor 183 (Homo sapiens, UniProt P32249). Put plainly: SAR confirmation of small molecule antagonists of the EBI2 receptor via a luminescent beta-arrestin assa. Type of assay: functional.
Assay [5] deals with T1, Dual specificity protein phosphatase 6 (Rattus norvegicus, UniProt Q64346).
T1 sequence (Q64346 whole entry): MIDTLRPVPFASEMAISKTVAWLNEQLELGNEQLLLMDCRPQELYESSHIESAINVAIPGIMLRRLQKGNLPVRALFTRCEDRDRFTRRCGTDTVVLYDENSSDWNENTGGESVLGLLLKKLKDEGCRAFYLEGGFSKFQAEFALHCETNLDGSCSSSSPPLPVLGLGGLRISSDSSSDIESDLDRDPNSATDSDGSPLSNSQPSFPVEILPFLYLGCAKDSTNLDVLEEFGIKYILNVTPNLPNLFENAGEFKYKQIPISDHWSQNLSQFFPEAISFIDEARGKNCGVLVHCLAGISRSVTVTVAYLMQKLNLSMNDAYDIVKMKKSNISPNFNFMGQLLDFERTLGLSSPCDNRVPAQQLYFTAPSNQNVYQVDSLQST
Put plainly: MKP-3 phosphatase inhibitors, primary screen, biochemical, rat enzyme, in vitro (AID 425).

Assay [6] is described as follows: A375 melanoma cell cytotoxicity, dose response, counter-screen for MITF inhibitor project, CellTiter-Glo luminescence, dry powder, set 2 (AID 624489).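 Further: actives are compounds lowering A375 viability meaning general cytotoxicity.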 The note with it: A-375. The class given is functional, cell-based.
Assay [7] is described as follows: A375 melanoma cell viability loss, dose response, counter-screen for MITF inhibitor project, CellTiter-Glo luminescence, dry powder, set 4 (AID 624364).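 Further: A375 melanoma cells are MITF independent so this is a counter screen.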 Type of assay: functional, cell-based. Particulars: A-375.
The nature of assay [8]: half-maximal inhibitory concentration for glucagon-like peptide-1 release, STC-1 cell line, dose-response (AID 1117345). Type of assay: functional, cell-based.
A short description of assay [9]: Glucagon-like peptide 1 release potency, NCI-H716 cell line, dose-response, half-maximal inhibitory concentration (AID 1117344). Type of assay: functional, cell-based.
The nature of assay [10]: MITF: Counter assay: A375 proliferation Measured in Cell-Based System Using Plate Reader - 2084-03_Inhibitor_Dose_DryPowder_Activity_Set8. Type of assay: functional. The note with it: A-375.
A short description of assay [11]: MITF Orthogonal Assay: SK-MEL-5 CTG Assay Measured in Cell-Based System Using Plate Reader - 2084-02_Inhibitor_Dose_DryPowder_Activity_Set7. The class given is functional.
Assay [12] in a line: TRPM1 promoter luciferase reporter signal decrease, dose response, MITF inhibitor project, cell-based, SK-MEL-5, dry powder, set 8 (AID 624430). Type of assay: functional. In general terms: Reporter assays use an easily measured gene product as a stand-in for the process of interest.
Assay [13] deals with T2, Low molecular weight phosphotyrosine protein phosphatase (Homo sapiens, UniProt P24666).
T2 sequence (P24666 whole entry): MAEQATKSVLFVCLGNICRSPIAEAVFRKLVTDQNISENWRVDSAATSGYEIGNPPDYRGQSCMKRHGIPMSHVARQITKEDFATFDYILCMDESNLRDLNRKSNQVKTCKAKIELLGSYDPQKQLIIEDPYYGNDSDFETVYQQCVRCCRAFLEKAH
Type of assay: functional. The note with it: read-out: IC50_Mean.

For assay [14], the target named is T3, Polyadenylate-binding protein 1 (Homo sapiens, UniProt P11940). Put plainly: PABP1 MLLE–PAM2 interaction inhibitors, dose response, miRNA deadenylation inhibitor project, biochemical, fluorescence polarization, Cy5-PAM2 peptide, secondary (AID 602260). The class given is functional. The note with it: read-out: IC50_Mean.
T3 sequence (P11940 whole entry): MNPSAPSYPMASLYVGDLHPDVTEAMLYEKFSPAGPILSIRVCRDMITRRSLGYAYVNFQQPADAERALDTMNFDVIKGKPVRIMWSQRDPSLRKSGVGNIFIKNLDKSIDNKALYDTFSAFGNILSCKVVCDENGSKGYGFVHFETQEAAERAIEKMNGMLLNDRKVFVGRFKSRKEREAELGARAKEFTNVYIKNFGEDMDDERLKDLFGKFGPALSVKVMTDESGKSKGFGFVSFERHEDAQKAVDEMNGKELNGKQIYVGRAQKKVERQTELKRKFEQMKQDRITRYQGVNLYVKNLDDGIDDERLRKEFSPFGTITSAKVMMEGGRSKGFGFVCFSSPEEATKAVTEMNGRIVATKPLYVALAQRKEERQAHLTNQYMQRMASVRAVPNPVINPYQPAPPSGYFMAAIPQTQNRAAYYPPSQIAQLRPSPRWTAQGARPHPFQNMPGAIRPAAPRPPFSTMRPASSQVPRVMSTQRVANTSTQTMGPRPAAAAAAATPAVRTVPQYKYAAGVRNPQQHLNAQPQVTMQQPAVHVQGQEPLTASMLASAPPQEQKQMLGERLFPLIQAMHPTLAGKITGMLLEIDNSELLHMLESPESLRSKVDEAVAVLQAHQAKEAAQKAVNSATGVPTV
Assay [15] deals with T3, Polyadenylate-binding protein 1. Put plainly: PABP1 MLLE–PAM2 binding inhibitor potency, dose response, biochemical, fluorescence polarization, FITC-PAM2 peptide (AID 602259). Type of assay: functional. Particulars: read-out: IC50_Mean.
The target in assay [16] is Glutathione-S-transferase (Schistosoma japonicum, UniProt Q26513). The experiment in a line: biotin-GST/anti-GST TR-FRET signal inhibitors, dose response, artefact control for Vif-APOBEC3G degradation inhibitor project, biochemical (AID 1117362). The class given is functional.
Sequence of Glutathione-S-transferase (Q26513 whole entry): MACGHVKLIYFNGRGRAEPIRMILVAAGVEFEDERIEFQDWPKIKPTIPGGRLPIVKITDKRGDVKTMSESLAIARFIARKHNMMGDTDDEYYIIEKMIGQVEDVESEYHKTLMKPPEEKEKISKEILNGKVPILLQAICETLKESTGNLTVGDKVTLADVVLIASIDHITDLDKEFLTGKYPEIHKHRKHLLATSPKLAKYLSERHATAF
A further assay deals with HEK293. Put plainly: HEK293T cell cytotoxicity, dose response, cytotoxicity control, ATP luminescence, cherry-pick samples (AID 687005).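 Further: cells exposed to compound for 48 hours.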 Type of assay: functional, cell-based. The note with it: Homo sapiens.
Assay [17] in a line: HEK293 Cytotoxicity Assay Measured in Cell-Based System Using Plate Reader - 7071-01_Inhibitor_Dose_CherryPick_Activity_Set2. The class given is functional.
Assay [18] can be described thus: cytotoxicity in HEK-293T cells, dose response, cytotoxicity control for BCR NF-kB inhibitor project, luminescence, B-cell screen hits (AID 489021).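 Further: HEK-293T cells carrying an NF-kB luciferase reporter; cells exposed to compound for about 14 hours before viability readout.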 Type of assay: functional, cell-based.
Assay [19] in a line: M. tuberculosis H37Rv growth inhibitors, H37Rv strain (AID 1626). Type of assay: functional.
Assay [20] can be described thus: Luminescence-based cell-based high throughput dose response assay to identify activators of the DAF-12 from the parasite S. stercoralis (ssDAF-12). Type of assay: functional.
Assay [21] has as its target T4, Oxysterols receptor LXR-beta (Homo sapiens, UniProt P55055).
T4 sequence (P55055 whole entry): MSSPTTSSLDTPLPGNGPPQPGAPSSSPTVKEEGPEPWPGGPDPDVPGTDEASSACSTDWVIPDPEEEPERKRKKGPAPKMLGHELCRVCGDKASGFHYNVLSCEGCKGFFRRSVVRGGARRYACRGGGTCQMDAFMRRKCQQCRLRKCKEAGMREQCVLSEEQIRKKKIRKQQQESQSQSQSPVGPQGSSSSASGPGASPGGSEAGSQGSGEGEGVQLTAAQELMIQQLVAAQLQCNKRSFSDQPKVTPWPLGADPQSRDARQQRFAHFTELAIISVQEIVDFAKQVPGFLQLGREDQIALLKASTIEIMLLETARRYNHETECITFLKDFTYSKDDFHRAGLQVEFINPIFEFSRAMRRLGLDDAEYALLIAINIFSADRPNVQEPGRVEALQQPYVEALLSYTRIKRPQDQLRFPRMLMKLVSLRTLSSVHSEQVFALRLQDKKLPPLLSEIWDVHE
Put plainly: LXR agonists, Gal4 luciferase reporter, dose response, counter-screen for ssDAF-12 agonist project, cell-based, luminescence, HEK293, S. stercoralis campaign (AID 720737). The class given is functional. The note with it: read-out: IC50 (the source's name).

Sequence of G-protein coupled receptor 183 (P32249 whole entry): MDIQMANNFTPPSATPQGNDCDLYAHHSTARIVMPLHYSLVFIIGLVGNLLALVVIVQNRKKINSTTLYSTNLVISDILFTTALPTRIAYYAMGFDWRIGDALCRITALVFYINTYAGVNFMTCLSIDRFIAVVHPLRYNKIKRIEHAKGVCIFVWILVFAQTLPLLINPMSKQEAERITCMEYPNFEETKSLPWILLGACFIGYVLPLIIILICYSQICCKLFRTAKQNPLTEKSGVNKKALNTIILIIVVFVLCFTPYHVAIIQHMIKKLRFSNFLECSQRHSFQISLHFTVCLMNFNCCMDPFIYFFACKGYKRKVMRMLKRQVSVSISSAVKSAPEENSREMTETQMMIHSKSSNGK
Sequence of Disintegrin and metalloproteinase domain-containing protein 17 (P78536 whole entry, the tested form may be a part): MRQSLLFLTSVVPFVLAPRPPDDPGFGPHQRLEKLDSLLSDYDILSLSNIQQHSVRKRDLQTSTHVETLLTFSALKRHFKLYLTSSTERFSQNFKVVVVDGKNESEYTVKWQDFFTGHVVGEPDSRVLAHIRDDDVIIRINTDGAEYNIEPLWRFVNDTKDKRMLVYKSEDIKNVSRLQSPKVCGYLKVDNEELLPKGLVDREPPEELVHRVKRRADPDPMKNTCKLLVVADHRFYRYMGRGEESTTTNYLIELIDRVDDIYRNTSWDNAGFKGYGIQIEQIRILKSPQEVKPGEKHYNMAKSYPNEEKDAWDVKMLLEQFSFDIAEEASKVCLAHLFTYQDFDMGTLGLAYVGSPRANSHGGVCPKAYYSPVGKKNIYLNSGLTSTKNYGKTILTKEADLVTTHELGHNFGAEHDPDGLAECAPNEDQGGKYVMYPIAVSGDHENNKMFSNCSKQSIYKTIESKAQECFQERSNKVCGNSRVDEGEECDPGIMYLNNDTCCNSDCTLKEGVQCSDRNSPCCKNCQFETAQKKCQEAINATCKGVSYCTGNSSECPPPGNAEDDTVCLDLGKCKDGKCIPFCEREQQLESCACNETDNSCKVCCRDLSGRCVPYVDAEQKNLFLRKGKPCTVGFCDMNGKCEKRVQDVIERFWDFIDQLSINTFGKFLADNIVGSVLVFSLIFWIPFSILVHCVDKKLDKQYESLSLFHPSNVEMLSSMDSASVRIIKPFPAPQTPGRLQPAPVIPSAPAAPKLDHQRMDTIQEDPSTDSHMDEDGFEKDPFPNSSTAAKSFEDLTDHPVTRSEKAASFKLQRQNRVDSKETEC

For the molecule `COC(=O)[C@H](CC(C)C)N(CCc1cn(Cc2ccccc2)nn1)S(=O)(=O)c1ccccc1Br`, the IC50 in [1] and in assay [2] was > 69.5 µM (inactive) in each case.
Turning to `CCC(CN)=C(c1ccccc1)c1ccccc1`, the IC50 in assay [3] is 10.8 µM (inactive).
For `O=C(/C=C/c1ccc(F)cc1)N1CCN(S(=O)(=O)c2cccc(Cl)c2)CC1`, the IC50 in assay [4] was 0.0115 µM (active).
Turning to `C[C@H]1C[C@H]2[C@@H]3CCC4=CC(=O)C=C[C@]4(C)[C@@]3(Cl)[C@@H](O)C[C@]2(C)[C@@]1(O)C(=O)CO` [BECLOMETHASONE], the IC50 in [5] is on record as > 100 µM (not active).
A word on the AC50: it is the concentration at which the activity in the assay is half-maximal. In the case of `CN1CCN(C2=C(NC(=O)c3ccc(Br)cc3)C(=O)c3ccccc3C2=O)CC1`, the AC50 in assay [6] was 8.99 µM (active); in [7], 23.5 µM (active).
With `Cc1cc(OI)c(C(C)C)cc1-c1cc(C(C)C)c(OI)cc1C` [THYMOL IODIDE], the IC50 in [8] was 15.1 µM (inactive); in assay [3], > 33.3 µM (inactive); in assay [9], > 40 µM (inactive).
With `O=C1C(Nc2cccc(Br)c2)=C(N2CCCC2)C(=O)c2ccccc21`, the AC50 in assay [10] is > 70 µM (inactive); in assay [11], 11.8 µM (active); in assay [12], 13.1 µM (active).
`NC1=C(c2ccccc2)C(=O)c2ccccc2C1=O`: the AC50 in assay [6] and in [7] was > 70 µM (inactive) in each case.
Regarding `CN=c1cccccc1S`, the IC50 was 49 µM (inactive) in assay [13], > 66 µM (inactive) in assay [14], > 66 µM (inactive) in assay [15] and > 100 µM (active) in assay [16].
With `O=C(Nc1cccc(F)c1)N[C@H]1CC[C@H](CCNS(=O)(=O)c2cccc(Cl)c2)O[C@@H]1CO`, the AC50 (in the assay on HEK293; in assay [17]) was 26 µM (active) each time.
In the case of `Nc1ccccc1SCC(=O)Nc1nc(-c2ccccc2)cs1`, the IC50 was > 80 µM (inactive) in assay [18] and > 100 µM (active) in assay [19].
On to `O=C(COn1nnc2ccc(C(F)(F)F)cc21)Nc1c(Cl)cccc1Cl`, for which the IC50 in [20] is > 67.6 µM (inactive). The EC50 in assay [21] is > 67.6 µM (inactive).
